As usually defined, the IC50 is the concentration that gives 50% inhibition.

In the experiment the target is Hepatocyte growth factor receptor (Homo sapiens, UniProt P08581). Put plainly: Kinase Assay: The inhibitory effect of the compounds of the present invention on the activity of c-Met was confirmed as follows.Specifically, 250 μM G4Y1 peptide, which serves as a substrate for c-Met enzyme (2 ng/μL), and 50 μM ATP were subjected to an enzyme reaction in a reaction buffer (40 mM Tris-HCl (pH 7.5), 20 mM MgCl2, 0.1 mg/mL bovine serum albumin, and 50 μM DTT). The compounds prepared in Examples and comparative compounds were treated at various concentrations and reacted at room temperature for 1 hour, sequentially added with ADP-Glo™ Reagent and the Kinase detection reagent, and reacted at room temperature for 40 minutes and 30 minutes, respectively. In general terms: In ADP-Glo the light output rises with the ADP produced.
Hepatocyte growth factor receptor, sequence (P08581 whole entry): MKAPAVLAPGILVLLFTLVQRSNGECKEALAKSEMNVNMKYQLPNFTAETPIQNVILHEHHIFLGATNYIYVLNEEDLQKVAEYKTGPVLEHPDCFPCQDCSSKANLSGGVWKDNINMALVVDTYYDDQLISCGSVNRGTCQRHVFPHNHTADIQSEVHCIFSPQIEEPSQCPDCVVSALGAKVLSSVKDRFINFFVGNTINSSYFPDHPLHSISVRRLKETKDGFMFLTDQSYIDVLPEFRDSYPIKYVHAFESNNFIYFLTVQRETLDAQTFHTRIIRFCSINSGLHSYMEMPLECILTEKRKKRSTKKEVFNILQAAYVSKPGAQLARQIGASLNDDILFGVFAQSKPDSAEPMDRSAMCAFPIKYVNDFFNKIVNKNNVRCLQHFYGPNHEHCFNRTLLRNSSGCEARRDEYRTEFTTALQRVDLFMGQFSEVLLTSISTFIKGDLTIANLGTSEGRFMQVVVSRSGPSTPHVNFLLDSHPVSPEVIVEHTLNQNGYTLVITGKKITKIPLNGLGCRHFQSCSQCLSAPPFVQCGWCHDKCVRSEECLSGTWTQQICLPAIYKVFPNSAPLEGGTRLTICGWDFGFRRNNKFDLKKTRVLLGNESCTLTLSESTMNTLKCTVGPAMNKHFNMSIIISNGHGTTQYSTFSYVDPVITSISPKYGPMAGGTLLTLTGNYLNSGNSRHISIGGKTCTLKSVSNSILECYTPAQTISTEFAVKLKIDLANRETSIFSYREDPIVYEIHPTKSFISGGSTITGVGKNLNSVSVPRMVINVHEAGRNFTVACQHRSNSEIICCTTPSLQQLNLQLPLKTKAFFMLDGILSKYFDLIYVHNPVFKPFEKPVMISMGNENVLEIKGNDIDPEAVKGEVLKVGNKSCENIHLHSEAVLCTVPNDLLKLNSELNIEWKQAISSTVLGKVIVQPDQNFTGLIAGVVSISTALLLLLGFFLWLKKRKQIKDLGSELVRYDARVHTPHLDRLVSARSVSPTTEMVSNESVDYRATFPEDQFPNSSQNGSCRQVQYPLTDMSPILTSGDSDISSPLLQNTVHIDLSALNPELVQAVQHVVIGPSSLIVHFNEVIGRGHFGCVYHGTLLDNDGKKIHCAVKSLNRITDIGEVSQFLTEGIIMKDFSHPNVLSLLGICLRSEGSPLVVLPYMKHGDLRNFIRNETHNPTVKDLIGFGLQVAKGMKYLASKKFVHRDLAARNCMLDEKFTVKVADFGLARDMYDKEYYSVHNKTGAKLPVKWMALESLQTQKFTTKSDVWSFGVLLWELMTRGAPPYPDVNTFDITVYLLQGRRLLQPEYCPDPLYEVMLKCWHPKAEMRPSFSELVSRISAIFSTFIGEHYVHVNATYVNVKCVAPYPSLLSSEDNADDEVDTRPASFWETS
Take `CN(C)Cc1cccc(-c2ccn3nccc(Oc4ccc(NC(=O)C5(C(=O)Nc6ccc(F)cc6)CC5)cc4F)c23)c1`: the concentration for half-maximal inhibition (IC50) was under 0.04 µM.

In turn, `N#Cc1cc(N)cc(-c2ccn3nccc(Oc4ccc(NC(=O)C5(C(=O)Nc6ccc(F)cc6)CC5)cc4F)c23)c1` had an IC50 of under 0.04 µM.

`CN(C)Cc1ccc(Cl)c(-c2ccn3nccc(Oc4ccc(NC(=O)C5(C(=O)Nc6ccc(F)cc6)CC5)cc4F)c23)c1`: the IC50 was under 0.04 µM.

The compound `CN(C)Cc1cc(F)cc(-c2ccn3nccc(Oc4ccc(NC(=O)C5(C(=O)Nc6ccc(F)cc6)CC5)cc4F)c23)c1` yielded an IC50 of under 0.04 µM.

In turn, `CN(C)Cc1ccc(F)c(-c2ccn3nccc(Oc4ccc(NC(=O)C5(C(=O)Nc6ccc(F)cc6)CC5)cc4F)c23)c1` gave an IC50 of under 0.04 µM.

`CNCc1cccc(-c2ccn3nccc(Oc4ccc(NC(=O)C5(C(=O)Nc6ccc(F)cc6)CC5)cc4F)c23)c1`: the IC50 was under 0.04 µM.

Consider `CCNCc1cccc(-c2ccn3nccc(Oc4ccc(NC(=O)C5(C(=O)Nc6ccc(F)cc6)CC5)cc4F)c23)c1`, for which the IC50 was under 0.04 µM.

In turn, `CCNc1cccc(-c2ccn3nccc(Oc4ccc(NC(=O)C5(C(=O)Nc6ccc(F)cc6)CC5)cc4F)c23)c1` yielded an IC50 of under 0.04 µM.

As for `N#CCc1cccc(-c2ccn3nccc(Oc4ccc(NC(=O)C5(C(=O)Nc6ccc(F)cc6)CC5)cc4F)c23)c1`, the IC50 was under 0.04 µM.

For the compound `NCc1cccc(-c2ccn3nccc(Oc4ccc(NC(=O)C5(C(=O)Nc6ccc(F)cc6)CC5)cc4F)c23)c1`, the IC50 was under 0.04 µM.

For the origin of these results see ChEMBL document CHEMBL5726595, “Protein kinase inhibitor containing pyrrolopyridazine derivative” (2017).
